Measured values as given in patent publication US10029989B2, “Imidazole derivatives” (Hoffmann-La Roche Inc., priority 2015, dated 2018).

What was measured:
human EAAT3 = biological target: T1, human EAAT3 (Homo sapiens, UniProt P43005); test: FLIPR Membrane Potential (FMP) assay, antagonist potency at human EAAT3; format: cell-based; settings: HEK-293 cells stably expressing human EAAT3; L-glutamate as agonist at EC80; antagonist applied 15 min before agonist; Kb by Cheng-Prusoff from IC50
T1 construct: expressed in transfected cells
T1 sequence (P43005 1-524): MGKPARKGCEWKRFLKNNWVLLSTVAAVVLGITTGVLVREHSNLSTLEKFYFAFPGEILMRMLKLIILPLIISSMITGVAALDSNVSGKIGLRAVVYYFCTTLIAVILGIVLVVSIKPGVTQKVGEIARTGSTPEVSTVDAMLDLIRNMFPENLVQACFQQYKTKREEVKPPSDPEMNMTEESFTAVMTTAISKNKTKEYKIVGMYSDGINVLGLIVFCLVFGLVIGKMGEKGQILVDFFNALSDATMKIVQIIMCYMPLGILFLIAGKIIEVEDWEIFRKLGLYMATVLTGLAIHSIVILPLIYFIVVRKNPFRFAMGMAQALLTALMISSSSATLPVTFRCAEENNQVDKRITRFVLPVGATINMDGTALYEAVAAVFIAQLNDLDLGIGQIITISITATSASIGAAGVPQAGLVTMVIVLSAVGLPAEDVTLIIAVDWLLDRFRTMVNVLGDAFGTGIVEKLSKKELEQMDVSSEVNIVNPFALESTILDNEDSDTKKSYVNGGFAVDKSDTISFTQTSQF
Description: The FLIPR Membrane Potential (FMP) Assay
HEK-293 cells stably expressing human EAAT3 were seeded at 55 000 cells/well in growth medium (DMEM glutamate free (Invitrogen 11960-044), 1% Pen Strep (10 ml/1 GIBCO BRL N°15140-023), 10% FCS non dialysed heat inactivated, 5 mg/l puromycin) in poly-D-lysine treated 96-well black microtiter plates with clear-bottom. After 24 h, the growth medium was removed and 100 μl/well of Krebs buffer (140 mM NaCl, 4.7 mM KCl, 2.5 mM CaCl2, 1.2 mM MgCl2, 11 mM HEPES, 10 mM D-glucose, pH=7.4) added. The cells were then loaded by adding 100 μl/well FMP assay dye (FLIPR Membrane Potential assay reagent, Molecular Devices). The 96-well plates were then incubated at 37° C. for 1 h. The depolarization of the cells will cause more dye to enter in the cells, where it will bind to intracellular proteins and lipids and cause an increase in the fluorescence signal. Antagonist potency at human EAAT3 was determined by using L-glutamate as agonist at a concentration which gives 80% of the maximum response. The antagonists were applied 15 min before the application of the agonist L-glutamate. The assays were performed at room temperature and measurements done by using a Fluorometric Imaging Plate Reader (FLIPR, Molecular Devices) and filter #2. Responses were measured as peak increase in fluorescence minus basal (i.e. fluorescence without addition of L-glutamate). Kb was determined using the Cheng-Prusoff equation Kb=IC50/[1+(A/EC50)], where IC50 is the concentration of the antagonist producing 50% inhibition, A is the concentration of the agonist against which the IC50 is being determined (at EC80) and EC50 is the concentration of the agonist producing 50% […].

Kb (human EAAT3) [nM] | melting point [°C] | Structure (SMILES)
130 | 208 | Cc1nccn1-c1cc(C(=O)NC(C)(C)C)cc(-c2ccc(F)cc2)c1 [Example 12, N-tert-Butyl-3-(4-fluorophenyl)-5-(2-methylimidazol-1-yl)-benzamide]
220 | 112 | CC(C)c1nccn1-c1cc(C(=O)NC2(C)CCS(=O)(=O)C2)cc(-c2ccc(Cl)cc2)c1 (racemic) [Example 38, (RS)-3-(4-Chlorophenyl)-N-(3-methyl-1,1-dioxothiolan-3-yl)-5-(2-propan-2-ylimidazol-1-yl)-benzamide]
130 | 104 | Cc1ccc(-c2cc(C(=O)NC(C)(C)C)cc(-n3ccnc3C(C)C)c2)cc1 [Example 26, N-tert-Butyl-3-(4-methylphenyl)-5-(2-propan-2-ylimidazol-1-yl)-benzamide]
210 | 173.5 | CC(C)(C)NC(=O)c1cc(-c2ccc(C(F)(F)F)cc2)cc(-n2ccnc2C(C)(C)O)c1 [Example 35, N-tert-Butyl-3-[2-(2-hydroxypropan-2-yl)-imidazol-1-yl]-5-[4-(trifluoromethyl)-phenyl]-benzamide]
280 | 98.5 | Cc1cc(-c2cc(C(=O)NC(C)(C)C)cc(-n3ccnc3C(C)C)c2)ccc1F [Example 27, N-tert-Butyl-3-(4-fluoro-3-methylphenyl)-5-(2-propan-2-ylimidazol-1-yl)-benzamide]
180 | 115 | CC1(NC(=O)c2cc(-c3ccc(Cl)cc3)cc(-n3ccnc3C3CC3)c2)CCS(=O)(=O)C1 (racemic) [Example 39, (RS)-3-(4-chlorophenyl)-5-(2-cyclopropylimidazol-1-yl)-N-(3-methyl-1,1-dioxothiolan-3-yl)-benzamide]
100 | 183 | CC(C)(C)NC(=O)c1cc(-c2ccc(F)cc2)cc(-n2ccnc2C(C)(C)O)c1 [Example 34, N-tert-Butyl-3-(4-fluorophenyl)-5-[2-(2-hydroxypropan-2-yl)-imidazol-1-yl]-benzamide]
290 | 225 | CC(C)(C)NC(=O)c1cc(-c2ccc(C(F)(F)F)cc2)cc(-n2ccnc2C(C)(C)C)c1 [Example 33, N-tert-Butyl-3-(2-tert-butylimidazol-1-yl)-5-[4-(trifluoromethyl)-phenyl]-benzamide]
310 | 90 | CC(C)(NC(=O)c1cc(-c2ccc(Cl)cc2)cc(-n2ccnc2C2CC2)c1)C1CC1 [Example 13, 3-(4-Chlorophenyl)-5-(2-cyclopropylimidazol-1-yl)-N-(2-cyclopropyl-propan-2-yl)-benzamide]
160 | 76 | CCC(C)(C)NC(=O)c1cc(-c2ccc(Cl)cc2)cc(-n2ccnc2CO)c1 [Example 30, 3-(4-Chlorophenyl)-5-[2-(hydroxymethyl)-imidazol-1-yl]-N-(2-methylbutan-2-yl)-benzamide]
130 | 199.5 | Cc1nccn1-c1cc(C(=O)NC(C)(C)C(F)(F)F)cc(-c2ccc(Cl)cc2)c1 [Example 14, 3-(4-Chlorophenyl)-5-(2-methylimidazol-1-yl)-N-(1,1,1-trifluoro-2-methylpropan-2-yl)-benzamide]
180 | 96.5 | CC(C)c1nccn1-c1cc(C(=O)NC(C)(C)C)cc(-c2ccc(C(F)(F)F)cc2)c1 [Example 21, N-tert-Butyl-3-(2-propan-2-ylimidazol-1-yl)-5-[4-(trifluoromethyl)-phenyl]-benzamide]
150 | 114 | CC(C)(C)NC(=O)c1cc(-c2ccc(Cl)cc2)cc(-n2ccnc2CO)c1 [Example 29, N-tert-Butyl-3-(4-chlorophenyl)-5-[2-(hydroxymethyl)-imidazol-1-yl]-benzamide]
230 | 189 | CC(C)c1nccn1-c1cc(C(=O)NC(C)(C)C2CC2)cc(-c2ccc(Cl)cc2)c1 [Example 8, 3-(4-Chlorophenyl)-N-(2-cyclopropylpropan-2-yl)-5-(2-propan-2-ylimidazol-1-yl)-benzamide]
